Measured values: article PMC3835493, “Acetylshikonin, a Novel AChE Inhibitor, Inhibits Apoptosis via Upregulation of Heme Oxygenase-1 Expression in SH-SY5Y Cells” (Evidence-based Complementary and Alternative Medicine : eCAM, 2013)
Like-named read-outs stand apart in the source and are kept apart here.

Key:
SH-SY5Y cells [1] = assay: MTT cell viability, H2O2-induced cell death; format: cell-based, human
Procedure: (§1) Human neuroblastoma SH-SY5Y cells were from ATCC (Manassas, VA, usa) and maintained in DMEM/F-12 containing 10% FBS and maintained at 37°C with 95% humidified air and 5% CO2. Rat adrenal medulla pheochromocytoma PC12 cells were from ATCC (Manassas, VA, USA) and maintained in DMEM containing 10% FBS at 37°C with 95% humidified air and 5% CO2.
(§2) MTT colorimetric assay was performed to determine the cell viability. Cells were seeded in 96-well plates at a density of 5 × 10^3 cells/well and treated with test chemicals at desired concentration at 37°C for 12 hours. Subsequently, cells were stimulated with H2O2 (500 μM) for 4 hours. After the exposure period, the cells were incubated with 20 μL MTT (5 mg/mL) for 4 h. The cells were eluted with DMSO and quantified with a spectrophotometer (Ultramark Microplate Reader, Bio-Rad) at a wavelength of 590 nm.

PC12 cells [2] = assay: MTT cell viability, H2O2-induced cell death; format: cell-based, rat
Procedure: as §1, §2

human recombinant AChE = molecular target: T1, human recombinant AChE (Homo sapiens, UniProt P22303); assay: AChE inhibition, Ellman assay; format: biochemical; details: 37°C
T1 construct: made in house
Procedure: Candidate phytochemicals dissolved in DMSO were tested for AChE inhibitory activity by the Ellman assay with minor modifications. Ten μL of human recombinant AChE (prepared in-house) and 1 μL of drug were added into 190 μL of PBS buffer (100 mM, pH 7.4) and incubated in a 96-well plate at 37°C for 10 min. […] After 10 min incubation with the substrate, the optical densities were measured in a 96-well plate reader at 412 nm. The optical density was inversely proportional to the inhibitory activity. By contrast, a blank control without the tested compound was also performed in parallel; the normal hydrolytic rate of the enzyme can be represented by the blank control. Each assay was performed in triplicate.
The percentage inhibitory activities of the various compounds were calculated by comparison with the positive control and the blank control. […] Data analysis was performed with Prism software. Inhibitory effects were expressed as IC50 value calculated by regression analysis.

SH-SY5Y cells [3] = assay: Cytotoxicity test by MTT without H2O2; format: cell-based, human; details: 10 μM, 12 h, no H2O2
Procedure: as §2
(§3) Figure 1 Potential AChE inhibitors of natural products attenuated H2O2-induced cell death in both SH-SY5Y and PC12 cells. SH-SY5Y (a) or PC12 (b) cells were cultured with desired concentration of H2O2 for 4 hours; the cell viability was detected by MTT. Data shown are means ± SEM of results from independent experiments in triplicate. *P < 0.05 compared with control cells. SH-SY5Y (c) or PC12 (d) cells were incubated with different potential AChE inhibitors (10 μM) for 12 hours and then stimulated with H2O2 (500 μM) for 4 hours, and the viability was detected by MTT. […] For cytotoxicity test, SH-SY5Y (e) or PC12 (f) cells were incubated with different potential AChE inhibitors (10 μM) for 12 hours, and the viability was detected by MTT. […]

PC12 cells [4] = assay: Cytotoxicity test by MTT without H2O2; format: cell-based, rat; details: 10 μM, 12 h, no H2O2
Procedure: as §2, §3

SH-SY5Y cells [5] = assay: Nuclear staining with Hoechst 33258 (apoptosis); format: cell-based, human; details: pretreatment 12 h, H2O2 4 h
Procedure: (§4) SH-SY5Y cells and PC12 cells (1 × 10^4 cells/well) in 24-well plates were preincubated with or without test chemicals for 12 hours and subsequently stimulated with H2O2 for the 4 hours. The nuclear morphology of apoptotic cells was measured by Hoechst 33258 nuclear staining according to the manufacturer's instructions. The nuclear morphological change was observed under a fluorescence microscope (Nikon Live Cell Imaging System Ti-E, Japan) using excitation/emission of 360/460 nm.

PC12 cells [6] = assay: Nuclear staining with Hoechst 33258 (apoptosis); format: cell-based, rat; details: pretreatment 12 h, H2O2 4 h
Procedure: as §4

SH-SY5Y cells [7] = assay: Intracellular ROS measurement (H2DCF-DA); format: cell-based, human; details: acetylshikonin 5 and 10 μM 12 h, H2O2 500 μM 2 h
Procedure: (§5) The cells were treated with desired concentration of acetylshikonin for 12 hours, and then the cells were stained with H2DCF-DA (10 μM) for 30 min. After 30 min staining, cells were stimulated with H2O2 (500 μM) for 2 h, and the fluorescence intensity of H2DCF-DA was measured/detected by a fluorescence spectrophotometer (M1000, TECAN, Austria GmbH, Austria) using excitation/emission of 485/530 nm and a fluorescence microscope (Nikon Live Cell Imaging System Ti-E, Japan) using excitation/emission of 490/530 nm, respectively. Fluorescence intensity of each group was normalized to the control group.

PC12 cells [8] = assay: Intracellular ROS measurement (H2DCF-DA); format: cell-based, rat; details: acetylshikonin 5 and 10 μM 12 h, H2O2 500 μM 2 h
Procedure: as §5

SH-SY5Y cells [9] = assay: Mitochondrial membrane potential (Rhodamine 123); format: cell-based, human; details: pretreatment 12 h, H2O2 500 μM 2 h
Procedure: as §5, with “were” for “were stained with H2DCF-DA (10 μM) for 30 min. After 30 min staining, cells were”, “2 h. Rhodamine 123 (2 μM) was added to cells after” for “2 h, and”, “the treatment for 30 min at 37°C. Fluorescence” for “the fluorescence”, “of Rhodamine 123” for “of H2DCF-DA”, “Japan) and” for “Japan)”

PC12 cells [10] = assay: Mitochondrial membrane potential (Rhodamine 123); format: cell-based, rat; details: pretreatment 12 h, H2O2 500 μM 2 h
Procedure: as §5, with “were” for “were stained with H2DCF-DA (10 μM) for 30 min. After 30 min staining, cells were”, “2 h. Rhodamine 123 (2 μM) was added to cells after” for “2 h, and”, “the treatment for 30 min at 37°C. Fluorescence” for “the fluorescence”, “of Rhodamine 123” for “of H2DCF-DA”, “Japan) and” for “Japan)”

[11] = tested on: Bcl-2, Bax, p53, caspase-3 in SH-SY5Y cells; assay: Western blot of apoptosis-related proteins; format: cell-based, human; details: pretreatment 12 h, H2O2 500 μM 1 h
Procedure: (§6) Proteins in the total cell lysate were separated by 10% SDS polyacrylamide gel electrophoresis and electrotransferred to a polyvinylidene difluoride membrane (Immobilon-P membrane; Millipore, Bedford, MA, USA). After the blot was blocked in a solution of 5% bovine serum albumin, membrane was incubated overnight with primary antibodies against Bcl-2, Bax, Caspase-3, p53, HO-1, or beta-actin followed by incubation with horseradish peroxidase-conjugated secondary antibodies for 1 h. Specific bands were detected with ECL-plus western blotting detection reagent (GE Healthcare Bio-Sciences) and photographed with FujiFilm LAS-3000 (Fujifilm, Tokyo, Japan).

[12] = tested on: Bcl-2, Bax, p53, caspase-3 in PC12 cells; assay: Western blot of apoptosis-related proteins; format: cell-based, rat; details: pretreatment 12 h, H2O2 500 μM 1 h
Procedure: as §6

HO-1 in SH-SY5Y cells = assay: Western blot of HO-1 expression; format: cell-based, human; details: acetylshikonin 12 h, H2O2 500 μM 1 h
Procedure: as §6

HO-1 in PC12 cells = assay: Western blot of HO-1 expression; format: cell-based, rat; details: acetylshikonin 12 h, H2O2 500 μM 1 h
Procedure: as §6

[13] = ZnPP 10 μM 2 h, acetylshikonin 12 h, H2O2 500 μM 4 h, MTT
[14] = IC50, human recombinant AChE, pH 7.4
[15] = human recombinant AChE, pH 7.4, read-out: IC50
[16] = acetylshikonin 1–10 μM 12 h, then H2O2 500 μM 4 h
[17] = test chemical 10 μM 12 h, then H2O2 500 μM 4 h

T1 sequence (P22303 32-614): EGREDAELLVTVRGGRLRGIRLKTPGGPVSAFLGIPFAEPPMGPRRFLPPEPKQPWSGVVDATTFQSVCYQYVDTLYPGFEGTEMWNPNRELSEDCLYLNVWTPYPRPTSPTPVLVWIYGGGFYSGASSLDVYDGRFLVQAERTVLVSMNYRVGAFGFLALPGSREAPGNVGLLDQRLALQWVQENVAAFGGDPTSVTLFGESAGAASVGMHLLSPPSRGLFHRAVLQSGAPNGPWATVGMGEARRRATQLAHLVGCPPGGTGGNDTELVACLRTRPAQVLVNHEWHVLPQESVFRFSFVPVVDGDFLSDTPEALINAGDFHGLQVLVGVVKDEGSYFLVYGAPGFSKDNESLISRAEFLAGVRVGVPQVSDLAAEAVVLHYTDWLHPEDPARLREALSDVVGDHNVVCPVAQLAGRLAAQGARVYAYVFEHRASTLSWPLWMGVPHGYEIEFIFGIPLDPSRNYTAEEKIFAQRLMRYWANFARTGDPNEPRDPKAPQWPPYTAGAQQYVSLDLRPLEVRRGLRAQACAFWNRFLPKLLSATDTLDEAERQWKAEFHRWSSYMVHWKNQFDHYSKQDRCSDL

Compound: C=CC1=C(C)c2cc3[n-]c(cc4[n-]c(cc5nc(cc1n2)C(C)=C5C=C)c(C)c4CCC(=O)O)c(CCC(=O)O)c3C.[Zn+2] [ZnPP, zinc protoporphyrin IX, reference compound]
- Effect of ZnPP on protective effects of acetylshikonin on H2O2-induced cell death (SH-SY5Y cells [1]; [13]): reversed the protective effects
- Effect of ZnPP on protective effects of acetylshikonin on H2O2-induced cell death (PC12 cells [2]; [13]): not observed

Compound: COc1c2occc2cc2ccc(=O)oc12 [Xanthotoxin]
- IC50 (human recombinant AChE; human recombinant AChE, pH 7.4): 133 µM

Compound: O=C(O)c1cc(O)c2c(c1)C(=O)c1cccc(O)c1C2=O [Rhein]
- IC50 (human recombinant AChE; [14]): 237 µM

Compound: COc1c2ccoc2c(OCC=C(C)C)c2oc(=O)ccc12 [Phellopterin]
- IC50 (human recombinant AChE; [15]): 177 µM

Compound: CC(C)=CC[C@@H](O)C1=CC(=O)c2c(O)ccc(O)c2C1=O [Shikonin]
- IC50 (human recombinant AChE; [14]): 71.8 µM

Compound: O=C1c2cccc(O)c2C(=O)c2c(O)cc(CO)cc21 [Aloe-emodin]
- IC50 (human recombinant AChE; [14]): 26.8 µM

Compound: CC(C)=CCOc1c2occc2cc2ccc(=O)oc12 [Imperatorin]
- IC50 (human recombinant AChE; human recombinant AChE, pH 7.4): Undetected

Compound: CC(=O)O[C@H](CC=C(C)C)C1=CC(=O)c2c(O)ccc(O)c2C1=O [Acetylshikonin]
- IC50 (human recombinant AChE; [14]): 34.6 µM
- H2O2-induced cell death and morphology change, dose dependence (SH-SY5Y cells [1]; [16]): dose dependently attenuated
- H2O2-induced cell death (cell viability, MTT) (SH-SY5Y cells [1]; [17]): highest viability
- H2O2-induced cell death and morphology change, dose dependence (PC12 cells [2]; [16]): dose dependently attenuated
- H2O2-induced cell death (cell viability, MTT) (PC12 cells [2]; [17]): highest viability
- Cytotoxicity in MTT assay (SH-SY5Y cells [3]): not observed
- Cytotoxicity in MTT assay (PC12 cells [4]): not observed
- H2O2-induced cell shrinkage and nuclear condensation (Hoechst 33258) (SH-SY5Y cells [5]): dramatically ameliorated
- H2O2-induced cell shrinkage and nuclear condensation (Hoechst 33258) (PC12 cells [6]): dramatically ameliorated
- H2O2-induced ROS generation (SH-SY5Y cells [7]): statistically declined
- H2O2-induced ROS generation (PC12 cells [8]): statistically declined
- H2O2-induced mitochondrial membrane potential loss (SH-SY5Y cells [9]): rescued by acetylshikonin in a dose-dependent manner
- H2O2-induced mitochondrial membrane potential loss (PC12 cells [10]): rescued by acetylshikonin in a dose-dependent manner
- Bax and p53 expression [11]: decreased
- Bcl-2 expression [11]: increased expression
- H2O2-induced decreased caspase-3 and increased cleaved caspase-3 [11]: rescued by acetylshikonin in a dose-dependent manner
- Bax and p53 expression [12]: decreased
- Bcl-2 expression [12]: increased expression
- H2O2-induced decreased caspase-3 and increased cleaved caspase-3 [12]: rescued by acetylshikonin in a dose-dependent manner
- HO-1 expression (HO-1 in SH-SY5Y cells): increased
- HO-1 expression (HO-1 in PC12 cells): no impact

Compound: Cc1cc(O)c2c(c1)C(=O)c1cccc(O)c1C2=O [Chrysophanol]
- IC50 (human recombinant AChE; [14]): 75.8 µM

Compound: CC(C)=CCC(OC(=O)C=C(C)C)C1=CC(=O)c2c(O)ccc(O)c2C1=O (stereo not drawn) [β,β-Dimethylacrylshikonin]
- IC50 (human recombinant AChE; human recombinant AChE, pH 7.4): 62.4 µM

Compound: CC(C)=CCc1c2occc2c(O)c2ccc(=O)oc12 [Alloisoimperatorin]
- IC50 (human recombinant AChE; [15]): 20.7 µM

Compound: CC(C)=CCC(OC(=O)CC(C)C)C1=CC(=O)c2c(O)ccc(O)c2C1=O (stereo not shown) [Isovalerylshikonin]
- IC50 (human recombinant AChE; [15]): 82.4 µM

Compound: Cc1cc(O)c2c(c1)C(=O)c1cc(O)cc(O)c1C2=O [Emodin]
- IC50 (human recombinant AChE; [14]): 21.8 µM
